Assays:
Assay in all cases: relative viability (nuclei count vs DMSO), 5 days (fraction); higher = more cells survive
[1] = compound: C1=CC2=NC=CN=C2C=C1/C=C/3\C(=O)NC(=O)S3 + N=C(N)NC(=N)NCCc1ccccc1 [Phenformin] (partner 250 µM)
How it was run: (§1)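 A single step with final 0.05% Triton X-100, 1% formaldehyde and 1 ug/ml Hoechst fixed the cells and stained nuclei 5 days after treatment. Lung cancer cell lines in 1536-well plates had been treated by pin tool the day after seeding with one drug alone or a fixed anchor-drug dose plus five library-drug doses (not always all listed) in √10 steps, and nuclei were counted on 4× images. Relative viability is the ratio of nuclei in treated wells to nuclei in vehicle wells, taken as the median of duplicate plates.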

[2] = compound: C1=CC2=NC=CN=C2C=C1/C=C/3\C(=O)NC(=O)S3 + Nc1nc2[nH]cc(CCc3ccc(C(=O)N[C@@H](CCC(=O)O)C(=O)O)cc3)c2c(=O)[nH]1 [Pemetrexed] (partner 0.2 µM)
How it was run: as §1

[3] = compound: C1=CC2=NC=CN=C2C=C1/C=C/3\C(=O)NC(=O)S3 + Nc1ncn([C@H]2C[C@H](O)[C@@H](CO)O2)c(=O)n1 [Decitabine] (partner 2 µM)
How it was run: as §1

BGJ398 + Linsitinib = compound: CCN1CCN(c2ccc(Nc3cc(N(C)C(=O)Nc4c(Cl)c(OC)cc(OC)c4Cl)ncn3)cc2)CC1 [BGJ398] + C[C@]1(O)C[C@@H](c2nc(-c3ccc4ccc(-c5ccccc5)nc4c3)c3c(N)nccn32)C1 [Linsitinib] (partner 1 µM)
How it was run: as §1

UMC-11 gave a relative viability ([1]; first compound 0.02 µM) of 0.329, a relative viability ([1]; first compound 0.06325 µM) of 0.335 and a relative viability ([1]; first compound 0.2 µM) of 0.373. It also gave a relative viability ([1]; first compound 0.6325 µM) of 0.338, a relative viability ([1]; first compound 2 µM) of 0.331 and a relative viability ([2]; first compound 0.02 µM) of 0.775. It also gave a relative viability ([2]; first compound 0.06325 µM) of 0.816, a relative viability ([2]; first compound 0.2 µM) of 0.862 and a relative viability ([2]; first compound 0.6325 µM) of 0.79. It also gave a relative viability ([2]; first compound 2 µM) of 0.887, a relative viability ([3]; first compound 0.02 µM) of 0.695 and a relative viability ([3]; first compound 0.06325 µM) of 0.665. It also gave a relative viability ([3]; first compound 0.2 µM) of 0.681, a relative viability ([3]; first compound 0.6325 µM) of 0.531 and a relative viability ([3]; first compound 2 µM) of 0.69. For the same cell line, the relative viability (BGJ398 + Linsitinib; first compound 0.01 µM) was 1.01, the relative viability (BGJ398 + Linsitinib; first compound 0.03162 µM) was 0.982 and the relative viability (BGJ398 + Linsitinib; first compound 0.1 µM) was 1.04. It also gave a relative viability (BGJ398 + Linsitinib; first compound 0.3162 µM) of 1.03 and a relative viability (BGJ398 + Linsitinib; first compound 1 µM) of 1.01.
